{"source": "paper PMC3646166", "about": "“Comparison of Aqueous and 1-Octanol Solubility as well as Liquid–Liquid Distribution of Acyclovir Derivatives and Their Complexes with Hydroxypropyl-β-Cyclodextrin” (Journal of Solution Chemistry, 2013)", "key": {"[1]": {"assay": "Solubility in water or 1-octanol (saturated solutions, UV-Vis)", "format": "physicochemical", "conditions": "for solubility: thermodynamic from solid, water", "experimental": "The sample of substance examined (10 mg or 80 mg for 6-Me-TACV) was placed in a glass ampoule and double-distilled, deionized water (Millipore, Elix 5 purifier), or pure anhydrous 1-octanol (Sigma 99 %) was added. To attain thermodynamic equilibrium, the solute and the solvent were mixed continuously for a minimum of 4 days at a speed of 25 rpm. After the experiment was completed, the sample was centrifuged at 40,000 rpm for 40 min at 25 ± 0.1 °C, the supernatant liquid was collected, diluted, and its concentration determined with a UV–Vis (Varian Carry IE) spectrophotometer. The experiments were repeated at least three times for each solubility."}, "[2]": {"assay": "Solubility in buffered cyclodextrin solutions (excess method of Higuchi and Connors)", "format": "physicochemical", "parameters": "Stability constant K s of HP-β-CD complex: unit not given here", "conditions": "for Correlation parameter a (Eq. 2, Cs = a + b·CCD) / Correlation parameter b (Eq. 2, Cs = a + b·CCD): buffered HP-β-CD solutions; for solubility / solubility at 7 days: thermodynamic from solid, read-out: Solubility, C 6-Ph-O-Me-TACV", "experimental": "Solubilities of the studied compounds was ensured according to the excess method of Higuchi and Connors. […] An excess amount of compounds 4-9 and 11-12 was added to 1.5 mL of aqueous phosphate buffer (concentration of buffer was equal 0.067 mol·dm^-3) solutions, (pH = 5.5 or 7.0) containing various concentration of HP-β-CD. The cyclodextrin concentration changed in the range of 10^-3 to 2 × 10^-2 mol·dm^-3. The suspensions were shaken in screw-capped plastic vials in a water bath thermostat with the volume of 60 dm^3 (home made apparatus by IChF PAN) at 25 and 37 °C. After 7 days equilibrium was reached and then the suspensions were centrifuged and the absorbance of the studied compounds was measured by UV-Vis spectrophotometry using a Shimadzu UV 2401 PC Spectrometer equipped with a thermostatically controlled cell compartment. During the measurement of absorbance, a buffered-solution of HP-β-CD, of the same concentration as in the studied solution, was always put as the reference. The average values of at least three independent determinations of the absorbance were used for calculation of the concentrations of the particular acyclovir derivatives. […] The main reason for the low solubility of tricyclic acyclovir derivatives with aromatic groups in water is the high hydrophobicity of these substituents. Use of cyclodextrins, which can include aromatic groups into their cavity, may enhance the aqueous solubility of such compounds. For this purpose we used several cyclodextrins and hydroxypropyl-β-cyclodextrin was chosen as being more efficient for complexating the tricyclic acyclovir derivatives. The investigations were performed, for chosen compounds, in various cyclodextrin HP-β-CD, buffered solutions (pH = 5.5 and 7.0) at 25 and 37 °C. […] Values of the correlation parameters a and b for tricyclic acyclovir derivatives complexed by cyclodextrin are presented in Table 3. […] The stability constants of the inclusion complexes between HP-β-CD and acyclovir derivatives have been calculated according to the Higuchi-Connors method using:3 K=b/C0(1-b) where C 0 is the solubility of the sample in solutions without cyclodextrin, obtained by determination of saturated solution concentration of acyclovir derivative solutions. […] These two values can differ, but in our study are very close to each other."}, "[3]": {"assay": "Extraction experiments, 1-octanol-water partition coefficient", "format": "physicochemical", "conditions": "25 °C, read-out: Partition coefficient 1-octanol–water, P oc/w (converted)", "experimental": "The equipment described above was also used for the determination of the 1-octanol-water partition coefficients. […] The partition coefficient was evaluated as:1 Poc/w=Coc/Cw where C oc and C w are the molar concentrations of the solute in the 1-octanol and water phases, respectively. The correctness of the P oc/w value of each compound was verified by checking the mass balance of the starting amount of the substance and the total amount of the substance partitioned between the two phases."}, "[4]": {"assay": "Solubility in buffered cyclodextrin solutions (excess method of Higuchi and Connors)", "format": "physicochemical", "conditions": "phosphate buffer saturated with 1-octanol, aqueous buffer, thermodynamic from solid, pH = 7.0, 37 °C, read-out: Solubility, C 6-Ph-O-Me-TACV"}, "HSV-1 and HSV-2 viruses": {"test_system": "HSV-1 and HSV-2 viruses", "parameters": "method as in PMID 7932543", "conditions": "towards HSV-1 and HSV-2 viruses ref 8; cited from earlier work"}}, "note": "Like-named read-outs stand apart in the source and are kept apart here.", "data": [{"smiles": "COc1ccc(-c2cn3c(=O)c4ncn(COCCO)c4nc3[nH]2)cc1", "note": "[Compound 11]", "values": [{"measurement": "Solubility ratio in 1-octanol and water, C oc/C w", "setting": "[1]; 25 °C", "value": 7.62}, {"measurement": "Solubility ratio in 1-octanol saturated with water and water saturated with 1-octanol, C ocw/C woc", "setting": "[1]; 25 °C", "value": 2.84}, {"measurement": "solubility", "setting": "[1]; 25 °C (Table 1), read-out: Solubility in water, C w", "value": 53, "unit": "µM"}, {"measurement": "solubility", "setting": "[1]; water saturated with 1-octanol, 25 °C, read-out: Solubility in water saturated with 1-octanol, C woc", "value": 135, "unit": "µM"}, {"measurement": "solubility", "setting": "[1]; 35 °C, read-out: Aqueous solubility, C w", "value": 144, "unit": "µM"}, {"measurement": "solubility", "setting": "[1]; 45 °C, read-out: Aqueous solubility, C w", "value": 465, "unit": "µM"}, {"measurement": "Correlation parameter a (Eq. 2, Cs = a + b·CCD)", "setting": "[2]; pH = 5.5, 25 °C", "value": "5.23 × 10^−5"}, {"measurement": "Correlation parameter b (Eq. 2, Cs = a + b·CCD)", "setting": "[2]; pH = 5.5, 25 °C", "value": "1.00 × 10^−2"}, {"measurement": "Correlation parameter a (Eq. 2, Cs = a + b·CCD)", "setting": "[2]; pH = 5.5, 37 °C", "value": "9.95 × 10^−5"}, {"measurement": "Correlation parameter b (Eq. 2, Cs = a + b·CCD)", "setting": "[2]; pH = 5.5, 37 °C", "value": "1.41 × 10^−2"}, {"measurement": "Correlation parameter a (Eq. 2, Cs = a + b·CCD)", "setting": "[2]; pH = 7.0, 25 °C", "value": "5.68 × 10^−5"}, {"measurement": "Correlation parameter b (Eq. 2, Cs = a + b·CCD)", "setting": "[2]; pH = 7.0, 25 °C", "value": "1.06 × 10^−2"}, {"measurement": "Correlation parameter a (Eq. 2, Cs = a + b·CCD)", "setting": "[2]; pH = 7.0, 37 °C", "value": "1.37 × 10^−4"}, {"measurement": "Correlation parameter b (Eq. 2, Cs = a + b·CCD)", "setting": "[2]; pH = 7.0, 37 °C", "value": "1.30 × 10^−2"}, {"measurement": "solubility", "setting": "[2]; organic solvent or mixture, 1-Octanol saturated with buffer, pH = 5.5, 25 °C", "value": 473, "unit": "µM"}, {"measurement": "solubility", "setting": "[2]; organic solvent or mixture, 1-Octanol saturated with buffer, pH = 5.5, 37 °C", "value": 741, "unit": "µM"}, {"measurement": "solubility at 7 days", "setting": "[2]; organic solvent or mixture, 1-Octanol saturated with buffer, pH = 7.0, 25 °C", "value": 485, "unit": "µM"}, {"measurement": "solubility at 7 days", "setting": "[2]; organic solvent or mixture, 1-Octanol saturated with buffer, pH = 7.0, 37 °C", "value": 882, "unit": "µM"}, {"measurement": "Stability constant K s of HP-β-CD complex", "setting": "[2]; pH = 5.5, 25 °C", "value": "213 (±6) dm·mol^−1"}, {"measurement": "Stability constant K s of HP-β-CD complex", "setting": "[2]; pH = 5.5, 37 °C", "value": "144 (±5)"}, {"measurement": "Stability constant K s of HP-β-CD complex", "setting": "[2]; pH = 7, 25 °C", "value": "189 (±6) dm·mol^−1"}, {"measurement": "Stability constant K s of HP-β-CD complex", "setting": "[2]; pH = 7, 37 °C", "value": "96 (±4)"}, {"measurement": "solubility at 7 days", "setting": "[2]; phosphate buffer saturated with 1-octanol, aqueous buffer, Buffer saturated with 1-octanol, pH = 5.5, 25 °C", "value": 74.2, "unit": "µM"}, {"measurement": "solubility at 7 days", "setting": "[2]; phosphate buffer saturated with 1-octanol, aqueous buffer, Buffer saturated with 1-octanol, pH = 5.5, 37 °C", "value": 127, "unit": "µM"}, {"measurement": "solubility at 7 days", "setting": "[2]; phosphate buffer saturated with 1-octanol, aqueous buffer, Buffer saturated with 1-octanol, pH = 7.0, 25 °C", "value": 58.7, "unit": "µM"}, {"measurement": "solubility at 7 days", "setting": "[2]; phosphate buffer saturated with 1-octanol, aqueous with cosolvent or surfactant or cyclodextrin, Buffer saturated with 1-octanol + HP-β-CD (2 × 10^−2 mol·dm^−3), pH = 5.5, 25 °C", "value": 40.3, "unit": "µM"}, {"measurement": "solubility at 7 days", "setting": "[2]; phosphate buffer saturated with 1-octanol, aqueous with cosolvent or surfactant or cyclodextrin, Buffer saturated with 1-octanol + HP-β-CD (2 × 10^−2 mol·dm^−3), pH = 5.5, 37 °C", "value": 77, "unit": "µM"}, {"measurement": "solubility at 7 days", "setting": "[2]; phosphate buffer saturated with 1-octanol, aqueous with cosolvent or surfactant or cyclodextrin, Buffer saturated with 1-octanol + HP-β-CD (2 × 10^−2 mol·dm^−3), pH = 7.0, 25 °C", "value": 40.3, "unit": "µM"}, {"measurement": "solubility at 7 days", "setting": "[2]; phosphate buffer saturated with 1-octanol, aqueous with cosolvent or surfactant or cyclodextrin, Buffer saturated with 1-octanol + HP-β-CD (2 × 10^−2 mol·dm^−3), pH = 7.0, 37 °C", "value": 80.6, "unit": "µM"}, {"measurement": "solubility at 7 days", "setting": "[2]; phosphate buffer with HP-β-CD, aqueous with cosolvent or surfactant or cyclodextrin, Buffer + HP-β-CD (2 × 10^−2 mol·dm^−3), pH = 5.5, 25 °C", "value": 244, "unit": "µM"}, {"measurement": "solubility at 7 days", "setting": "[2]; phosphate buffer with HP-β-CD, aqueous with cosolvent or surfactant or cyclodextrin, Buffer + HP-β-CD (2 × 10^−2 mol·dm^−3), pH = 5.5, 37 °C", "value": 374, "unit": "µM"}, {"measurement": "solubility at 7 days", "setting": "[2]; phosphate buffer with HP-β-CD, aqueous with cosolvent or surfactant or cyclodextrin, Buffer + HP-β-CD (2 × 10^−2 mol·dm^−3), pH = 7.0, 25 °C", "value": 265, "unit": "µM"}, {"measurement": "solubility at 7 days", "setting": "[2]; phosphate buffer with HP-β-CD, aqueous with cosolvent or surfactant or cyclodextrin, Buffer + HP-β-CD (2 × 10^−2 mol·dm^−3), pH = 7.0, 37 °C", "value": 391, "unit": "µM"}, {"measurement": "solubility at 7 days", "setting": "[2]; phosphate buffer, aqueous buffer, Buffer, pH = 5.5, 25 °C", "value": 48.2, "unit": "µM"}, {"measurement": "solubility at 7 days", "setting": "[2]; phosphate buffer, aqueous buffer, Buffer, pH = 5.5, 37 °C", "value": 99.4, "unit": "µM"}, {"measurement": "solubility at 7 days", "setting": "[2]; phosphate buffer, aqueous buffer, Buffer, pH = 7.0, 25 °C", "value": 55, "unit": "µM"}, {"measurement": "solubility at 7 days", "setting": "[2]; phosphate buffer, aqueous buffer, Buffer, pH = 7.0, 37 °C", "value": 136, "unit": "µM"}, {"measurement": "logP at 2 days", "setting": "[3]", "value": 0.386}, {"measurement": "solubility at 7 days", "setting": "[4]", "value": 139, "unit": "µM"}, {"measurement": "Antiherpetic activity relative to parent acyclovir (concentrations required to reduce virus-induced cytopathicity by 50 %)", "setting": "HSV-1 and HSV-2 viruses", "value": "2–7 times higher"}]}]}
